{"source": "PubChem BioAssay AID488890", "about": "(Southern Research Specialized Biocontainment Screening …, 2010)", "note": "Inconclusive results are not listed. Activity calls are given as the source filed them. No rule for the calls is given here.", "data": [{"test_system": "Mycobacterium tuberculosis non-replicating, growth inhibition", "assay": "growth inhibition of non-replicating M. tuberculosis (AID 488890)", "values": [{"smiles": "COC(=O)c1ccccc1Sc1ncnc2onc(C)c12", "IC50": "6.54 µM"}, {"smiles": "CC(C)(C)NC(=O)C(=O)NNC(=O)COc1ccc(Br)cc1", "IC50": "12 µM (inactive)"}, {"smiles": "COc1cccc(-c2nnc(NC(=O)c3ccc4ncsc4c3)o2)c1", "IC50": "9.06 µM"}, {"smiles": "CSC1=N/C(=C\\c2ccc(Br)o2)C(=O)S1", "IC50": "28.7 µM (inactive)"}, {"smiles": "Cc1ccc(/C(O)=C/c2nc3ccccc3oc2=O)cc1", "IC50": "4.77 µM"}, {"smiles": "Cc1ccc(C(=O)Nc2nccs2)cc1", "IC50": "19.8 µM (inactive)"}, {"smiles": "CCc1cc(C=NC2CCCCC2)c(O)s1", "IC50": "1.78 µM"}, {"smiles": "CC(C)N1CCc2c(sc(NC(=O)CCS(=O)(=O)c3ccccc3)c2C#N)C1", "IC50": "39.6 µM (inactive)"}, {"smiles": "O=C(N/N=C/c1cc(Br)c(Br)s1)c1ccncc1", "IC50": "3.18 µM"}, {"smiles": "Cc1cccc(OCC(O)Cn2c(=N)n(Cc3ccccc3)c3ccccc32)c1", "note": "(stereo not drawn)", "IC50": "20.4 µM (inactive)"}, {"smiles": "CN(C)CCCN(C(=O)CCc1ccccc1)c1nc2ccc(Br)cc2s1", "IC50": "14.2 µM (inactive)"}, {"smiles": "COc1ccc(COc2cccc(C=O)c2)cc1", "IC50": "25.8 µM (inactive)"}, {"smiles": "CN1CCN(c2ccc(NC(=O)c3ccc(-c4ccc(Br)cc4)o3)cc2)CC1", "IC50": "4.06 µM"}, {"smiles": "C/C(O)=C\\c1nc2ccccc2oc1=O", "IC50": "3.18 µM"}, {"smiles": "CCCC(NCC(O)COc1ccc(-c2ccccc2)cc1)c1ccccc1", "note": "(stereo not drawn)", "IC50": "10.7 µM (inactive)"}, {"smiles": "CCc1ccc(OCCNc2cc(N3CCNC(C)C3)ccc2[N+](=O)[O-])cc1", "note": "(stereo not drawn)", "IC50": "2.89 µM"}, {"smiles": "Cc1nn(-c2ccccc2)nc1C(=O)c1c(C)[nH]n(-c2ccccc2)c1=O", "IC50": "4.19 µM"}, {"smiles": "O=C(OCc1nnc(-c2ccccc2)o1)c1cc([N+](=O)[O-])ccc1Cl", "IC50": "6.28 µM"}, {"smiles": "C/C(=N\\NC(=O)c1ccccc1OCc1ccc(F)cc1)c1ccccn1", "IC50": "2.82 µM"}, {"smiles": "C/C(=N\\NC(=O)c1cccc(Cl)c1)C1C(=O)c2ccccc2C1=O", "IC50": "0.38 µM"}, {"smiles": "COc1cccc(C(=O)N2N=C(c3ccccn3)CC2(O)C(F)(F)F)c1", "note": "(stereo not drawn)", "IC50": "12.3 µM (inactive)"}, {"smiles": "Cc1cc(Br)ccc1OCCCCN1CCCCC1", "IC50": "14.4 µM (inactive)"}, {"smiles": "Cc1ccc(N2C(=O)CC(Sc3nccc(C)n3)C2=O)cc1", "note": "(stereo not drawn)", "IC50": "29.6 µM (inactive)"}, {"smiles": "Cc1cc(C=C2C(=O)NC(=S)NC2=O)c(C)n1C1CCCC1", "IC50": "3.88 µM"}, {"smiles": "CCc1ccc(NC(=O)CCc2ccc(C)o2)cc1", "IC50": "9.6 µM"}, {"smiles": "COc1cccc(C(=O)N/N=C(/c2ccccc2)c2ccccn2)c1", "IC50": "4.04 µM"}, {"smiles": "CCOC(=O)COc1cc(N)c(Cl)cc1Cl", "IC50": "5.21 µM"}, {"smiles": "Oc1ccccc1Nc1nc(NCC2CCCO2)c2ccccc2n1", "note": "(stereo not drawn)", "IC50": "30.7 µM (inactive)"}, {"smiles": "C=CCc1cc(Cl)ccc1OCCCn1ccnc1", "IC50": "8.18 µM"}, {"smiles": "CC(=O)Oc1c(-c2ccco2)oc2ccccc2c1=O", "IC50": "10.6 µM (inactive)"}, {"smiles": "c1ccc(/N=C2\\N=C(Nc3ccccn3)c3ccccc32)nc1", "IC50": "< 0.1 µM"}, {"smiles": "CCOC(=O)c1nn(-c2ccccc2)c2nc(Nc3ccccc3)cc(=O)n12", "IC50": "4.74 µM"}, {"smiles": "CCOC(=O)Nc1cccc(OCC(=O)Nc2ccc(OC)cc2OC)c1", "IC50": "16.5 µM (inactive)"}, {"smiles": "C/C(=N\\Nc1nc2ccccc2[nH]1)c1ccc(N2CCOCC2)cc1", "IC50": "10.5 µM (inactive)"}, {"smiles": "Cc1occc1C(=O)N/N=C/c1ccc[nH]1", "IC50": "11.9 µM (inactive)"}, {"smiles": "c1ccc(-c2n[nH]c(-c3ccccn3)n2)nc1", "IC50": "6.04 µM"}, {"smiles": "CCOC(=O)C1CCCc2c1[nH]c1c(C(N)=O)cccc21", "note": "(stereo not drawn)", "IC50": "9.99 µM"}, {"smiles": "CN(C)CCOc1nc(-c2ccccc2)nc2c1oc1ccccc12", "IC50": "14.3 µM (inactive)"}, {"smiles": "O=C(Nc1nnc(-c2ccc(Cl)cc2)o1)c1ccccc1Br", "IC50": "0.58 µM"}, {"smiles": "COc1cccc(F)c1C(C[N+](=O)[O-])c1c(N)n(C)c(=O)n(C)c1=O", "note": "(stereo not drawn)", "IC50": "7.59 µM"}, {"smiles": "C/C(=N\\NC(=O)c1cccs1)c1ccc2c(c1)OCO2", "IC50": "8.78 µM"}, {"smiles": "OC(COc1ccc2ccccc2c1Br)Cn1ccnc1", "note": "(stereo not drawn)", "IC50": "33 µM (inactive)"}, {"smiles": "COc1ccc(CN=C(C#N)C2=C(O)c3ccccc3C2=O)cc1", "IC50": "8.56 µM"}, {"smiles": "COC(=O)c1cccc(NC(=O)COc2cccc([N+](=O)[O-])c2)c1", "IC50": "7.11 µM"}, {"smiles": "O=C(CC1CCCC1)OCn1nnc2ccccc2c1=O", "IC50": "14 µM (inactive)"}, {"smiles": "COC(=O)COc1ccc(-c2nn(C)c(=O)c3ccccc23)cc1", "IC50": "4.25 µM"}, {"smiles": "CCc1ccccc1NC(=O)C1COc2ccccc2O1", "note": "(stereo not drawn)", "IC50": "19.8 µM (inactive)"}, {"smiles": "CCC1CCC(c2nnc(-c3ccc([N+](=O)[O-])cc3)o2)CC1", "note": "(stereo not drawn)", "IC50": "< 0.1 µM"}, {"smiles": "COc1cc(NC(=O)C/C(C)=N/NC(=O)c2cccs2)c(OC)cc1Cl", "IC50": "7.93 µM"}, {"smiles": "COc1ccc(/C=C2\\Sc3ccc(C(=O)NCCN4CCCCCC4)cc3N(C)C2=O)cc1", "IC50": "12.7 µM (inactive)"}, {"smiles": "Clc1ccc(N=c2ssnc2Cl)nc1", "IC50": "3.45 µM"}, {"smiles": "O=C(COc1ccc(Cl)cc1)NNC(=O)c1ccccn1", "IC50": "12.1 µM (inactive)"}, {"smiles": "O=C(NNc1nc2cc3c(cc2s1)OCCO3)c1ccccc1", "IC50": "23.5 µM (inactive)"}, {"smiles": "O=C(Nc1nnc(-c2ccc(Cl)cc2)o1)c1cccc(N2C(=O)CCC2=O)c1", "IC50": "22.3 µM (inactive)"}, {"smiles": "COc1cccc(/C=N/NC(=O)c2ccoc2C)c1O", "IC50": "1.93 µM"}, {"smiles": "Cc1ccc(C(=O)CCNc2ccc(Br)cc2)o1", "IC50": "1.84 µM"}, {"smiles": "O=C1Nc2ccccc2/C1=C/C(=O)c1cccs1", "IC50": "13.4 µM (inactive)"}, {"smiles": "O=C(NC(=S)N1CCN(C/C=C/c2ccccc2)CC1)c1ccco1", "IC50": "36.1 µM (inactive)"}]}]}
